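The compound was tested at five concentrations on cells cultured in 96-well plates, with a 48-hour exposure period. GI50 = concentration required for 50% inhibition of growth.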 Calls of active or inactive are those of the source. No stated cut-off is given here; in the data, active = GI50 up to about 1.1 µM and inactive = higher. Where only a bound is given, the exact number is not on record here.

Some test systems named below: ACHN; COLO 205; IGROV-1; EKVX; CCRF-CEM; UACC-257; M14; MOLT-4; NCI-H23; RPMI-8226; Malme-3M; SNB-75; HCT-15; HCT-116; HT-29; OVCAR-4; CAKI-1.
Holding throughout (test): NCI tumour cell line growth inhibition, 48 h

Turning to `N#Cc1ccc(OCCSCCCCCCCCCCSCCOc2ccc(C#N)cc2)cc1`, the GI50 in the experiment on ACHN was > 100 µM (inactive); with COLO 205 it was > 100 µM (inactive); with IGROV-1 it was > 100 µM (inactive); with EKVX it was > 100 µM (inactive); with CCRF-CEM it was > 100 µM (inactive); with UACC-257, 2.25 µM (inactive). Besides, the GI50 in the experiment with M14, in the experiment on MOLT-4, in the experiment on NCI-H23, in the experiment with RPMI-8226, with Malme-3M and in the experiment with SNB-75 was > 100 µM (inactive) each time. Also, the GI50 in the experiment with HCT-15 is above 100 µM.

As for `NC(=S)N/N=C1\CCCC\C1=C/c1ccccc1`, the GI50 is > 100 µM (inactive) in the experiment on ACHN; 65.6 µM (inactive) with COLO 205; 58.2 µM (inactive) in the experiment with HCT-116; 25.2 µM (inactive) in the experiment on IGROV-1; 20 µM (inactive) in the experiment on HT-29; 99.8 µM (inactive) in the experiment with EKVX. Moreover, the GI50 is 30.5 µM (inactive) with CCRF-CEM; 17.9 µM (inactive) in the experiment with UACC-257; 91 µM (inactive) in the experiment on M14; 19.6 µM (inactive) in the experiment on MOLT-4; > 100 µM (inactive) in the experiment on NCI-H23; 15 µM (inactive) in the experiment with RPMI-8226. In addition, the GI50 with Malme-3M is 60.8 µM (inactive); in the experiment on SNB-75 it was 30.5 µM (inactive); in the experiment with HCT-15, 67.1 µM; in the experiment with OVCAR-4 it was 27 µM (inactive).

As to `N=C(N)n1ncc(Cl)c(Cl)c1=O`, the GI50 is 3.81 µM (inactive) with ACHN; 1.88 µM (inactive) with COLO 205; 1.73 µM (inactive) with HCT-116; 11.1 µM (inactive) in the experiment on IGROV-1; 2.36 µM (inactive) with EKVX; 2.15 µM (inactive) in the experiment with CCRF-CEM. Moreover, the GI50 in the experiment with UACC-257 is 2.13 µM (inactive); in the experiment on M14, 1.98 µM (inactive); in the experiment on MOLT-4 it was 2.02 µM (inactive); with NCI-H23 it was 2.45 µM (inactive); in the experiment with RPMI-8226 it was 2.28 µM (inactive); in the experiment with CAKI-1, 1.81 µM (inactive). The GI50 with Malme-3M was 2.21 µM (inactive); with SNB-75, 2.99 µM (inactive); with HCT-15 it was 1.87 µM; with OVCAR-4, 1.91 µM (inactive).

As to `CCOC(=O)C1N(S(=O)(=O)c2ccc(C)cc2)CCC12c1ccccc1N(C(C)=O)C2C(/C=C/C(=O)OC)=C/C(=O)OC` (stereo not drawn), the GI50 in the experiment with ACHN, in the experiment with COLO 205, with HCT-116, with IGROV-1, with HT-29 and in the experiment on EKVX was > 100 µM (inactive) each time. Further, the GI50 is > 100 µM (inactive) in the experiment on CCRF-CEM; > 100 µM (inactive) in the experiment on UACC-257; > 100 µM (inactive) with M14; > 100 µM (inactive) in the experiment on NCI-H23; 62.5 µM (inactive) with RPMI-8226; > 100 µM (inactive) in the experiment with CAKI-1. For the same compound, the GI50 in the experiment with Malme-3M, in the experiment with SNB-75 and in the experiment with OVCAR-4 was > 100 µM (inactive) throughout.

Turning to `C/C(=N\Nc1ccc([N+](=O)[O-])cc1)C(=O)N(C)Nc1ccccc1`, the GI50 in the experiment on ACHN was 35.4 µM (inactive); with COLO 205, 58.3 µM (inactive); in the experiment with IGROV-1 it was 58.9 µM (inactive); with HT-29, 66.8 µM (inactive); in the experiment with EKVX it was 34.5 µM (inactive); in the experiment with CCRF-CEM it was > 100 µM (inactive). The GI50 in the experiment with UACC-257 is 31.6 µM (inactive); with M14, 43.2 µM (inactive); with MOLT-4 it was 41 µM (inactive); in the experiment on NCI-H23, 58.5 µM (inactive); with RPMI-8226 it was 76 µM (inactive); in the experiment with SNB-75, 27.6 µM (inactive). Further, the results for the GI50 with HCT-15 and with OVCAR-4 were 48.1 µM and 47.2 µM (inactive), respectively.

`COc1ccc(/C=c2/sc3n(c2=O)NC2(CCCCC2)NN=3)cc1`: the GI50 in the experiment on COLO 205, with HCT-116, in the experiment with IGROV-1, in the experiment with HT-29, in the experiment with EKVX and in the experiment on CCRF-CEM was > 100 µM (inactive) throughout. Moreover, the GI50 with M14 was > 100 µM (inactive); in the experiment on MOLT-4 it was > 100 µM (inactive); with NCI-H23, > 100 µM (inactive); in the experiment on CAKI-1, > 100 µM (inactive); with Malme-3M, > 100 µM (inactive); in the experiment on SNB-75, 92.7 µM (inactive). Further, in the experiment on OVCAR-4, the GI50 is > 100 µM (inactive).

Turning to `CC(=O)NC1=C(NCCC(C)C)C(=O)c2ccccc2C1=O`, the GI50 in the experiment with ACHN was 0.0301 µM (active); in the experiment on COLO 205 it was > 50 µM (inactive); with HCT-116, > 50 µM (inactive); in the experiment on IGROV-1, > 50 µM (inactive); in the experiment on HT-29, > 50 µM (inactive); in the experiment with EKVX it was > 50 µM (inactive). Besides, the GI50 is > 50 µM (inactive) with CCRF-CEM; > 50 µM (inactive) in the experiment with UACC-257; > 50 µM (inactive) in the experiment on M14; > 50 µM (inactive) with MOLT-4; > 50 µM (inactive) with NCI-H23; 45.9 µM (inactive) in the experiment with Malme-3M. The GI50 is > 50 µM (inactive) in the experiment on SNB-75, above 50 µM in the experiment on HCT-15 and > 50 µM (inactive) with OVCAR-4.

On to `O=C(CCC(=O)C1Cc2ccccc2C1=O)Nc1cccc(C(F)(F)F)c1` (stereo not drawn), for which the GI50 with ACHN, in the experiment with COLO 205, in the experiment on HCT-116, in the experiment with IGROV-1, with HT-29 and in the experiment with EKVX was > 100 µM (inactive) each time. For the same compound, the GI50 with CCRF-CEM, in the experiment with UACC-257, with M14, in the experiment with MOLT-4, with NCI-H23 and with CAKI-1 was > 100 µM (inactive) throughout. The GI50 in the experiment on Malme-3M was > 100 µM (inactive); with HCT-15, above 100 µM; in the experiment on OVCAR-4 it was > 100 µM (inactive).

As for `COC1(OC)CCCCC2c3cccc(OC(C)=O)c3C21OC(C)=O` (stereo not drawn), the GI50 is 78.9 µM (inactive) in the experiment with ACHN; > 100 µM (inactive) in the experiment on COLO 205; 57.9 µM (inactive) in the experiment on HCT-116; > 100 µM (inactive) in the experiment with IGROV-1; > 100 µM (inactive) in the experiment on HT-29; > 100 µM (inactive) in the experiment on EKVX. Besides, the GI50 in the experiment on CCRF-CEM was > 100 µM (inactive); with UACC-257 it was > 100 µM (inactive); in the experiment on M14, > 100 µM (inactive); in the experiment on MOLT-4, 64.3 µM (inactive); in the experiment on NCI-H23, > 100 µM (inactive); with RPMI-8226, 54 µM (inactive). Besides, the GI50 in the experiment with Malme-3M was > 100 µM (inactive); with SNB-75 it was > 100 µM (inactive); in the experiment with HCT-15 it was 73.8 µM; in the experiment with OVCAR-4, > 100 µM (inactive).

With `O=C1CC(c2ccc(Cl)cc2)=Nc2ccccc2N1`, the GI50 with ACHN was 69.5 µM (inactive); with COLO 205, > 100 µM (inactive); in the experiment on HCT-116, 28.6 µM (inactive); with IGROV-1, > 100 µM (inactive); with HT-29 it was > 100 µM (inactive); with EKVX it was 47.3 µM (inactive). Besides, the GI50 is 15.1 µM (inactive) in the experiment with CCRF-CEM; 80.7 µM (inactive) in the experiment with UACC-257; > 100 µM (inactive) with M14; > 100 µM (inactive) in the experiment on MOLT-4; 65.8 µM (inactive) with NCI-H23; > 100 µM (inactive) with CAKI-1. Besides, the GI50 was > 100 µM (inactive) in the experiment with Malme-3M, 20.6 µM (inactive) with SNB-75, 65.8 µM in the experiment with HCT-15 and 28.6 µM (inactive) in the experiment with OVCAR-4.

With `CCOC(=O)C(C)(C)Oc1ccc2c(=O)cc(-c3ccccc3)oc2c1`, the GI50 is 54.7 µM (inactive) with ACHN; 19.6 µM (inactive) with COLO 205; 17.3 µM (inactive) in the experiment on HCT-116; 29.5 µM (inactive) in the experiment on IGROV-1; 31.9 µM (inactive) with EKVX; 18 µM (inactive) with CCRF-CEM. Further, the GI50 in the experiment on UACC-257 is 17.4 µM (inactive); with M14 it was 19.5 µM (inactive); in the experiment with MOLT-4 it was 13.8 µM (inactive); in the experiment with NCI-H23 it was 18.6 µM (inactive); in the experiment on RPMI-8226, 14.1 µM (inactive); in the experiment with Malme-3M, 22.9 µM (inactive). The GI50 in the experiment with SNB-75 was 19.1 µM (inactive); with HCT-15, 20 µM.

For `COC(=O)C(Cc1nc2ccccc2nc1O)C(NO)C(=O)Nc1c(Cl)cc([N+](=O)[O-])cc1Cl` (stereo not drawn), the GI50 in the experiment with ACHN was 35.6 µM (inactive); in the experiment on COLO 205, 46.2 µM (inactive); in the experiment with HCT-116, 22.3 µM (inactive); with IGROV-1, 40.8 µM (inactive); in the experiment on HT-29 it was 35.2 µM (inactive); in the experiment with EKVX, 27.7 µM (inactive). The GI50 with CCRF-CEM was 23.3 µM (inactive); with UACC-257, 27.7 µM (inactive); with M14, 50.1 µM (inactive); with MOLT-4, 27.9 µM (inactive); in the experiment on NCI-H23 it was 22.4 µM (inactive); in the experiment with RPMI-8226, 34.7 µM (inactive). Besides, the GI50 in the experiment with CAKI-1 was 27.6 µM (inactive); with Malme-3M it was 47.5 µM (inactive); with HCT-15, 49.2 µM; in the experiment with OVCAR-4 it was 38.5 µM (inactive).

Consider `COC(=O)c1c/c(=N\NC(=O)CC(=O)Nc2ccccc2OC)c2ccccc2o1`, for which the GI50 with ACHN, in the experiment on COLO 205, in the experiment on HCT-116, in the experiment with IGROV-1, in the experiment on HT-29 and with EKVX was > 100 µM (inactive) throughout. The GI50 is > 100 µM (inactive) with M14; 75.7 µM (inactive) with MOLT-4; > 100 µM (inactive) in the experiment with NCI-H23; > 100 µM (inactive) in the experiment on RPMI-8226; > 100 µM (inactive) in the experiment on CAKI-1; > 100 µM (inactive) in the experiment with SNB-75. Also, the GI50 with HCT-15 was above 100 µM; in the experiment on OVCAR-4 it was > 100 µM (inactive).

The record behind these values is ChEMBL document CHEMBL1201862, “PubChem BioAssay data set” (2004).
